In patent publication US7588931B2, “High arachidonic acid producing strains of Yarrowia lipolytica” (E. I. du Pont de Nemours and Company, priority 2004, dated 2009):
“Also recorded” adds a separate entry of the source.

Key:
Type in all cases: cell-based, Yarrowia lipolytica
[1] = test system: wild type Y. lipolytica strains ATCC #20362 and ATCC #90812; assay: Sulfonylurea sensitivity screening of wild type strains; settings: wild type strains ATCC #20362 and ATCC #90812
From the text: When the amino acid sequences of wild type AHAS Y. lipolytica (GenBank Accession No. XP—501277) and S. cerevisiae (GenBank Accession No. P07342) enzymes were aligned, the Trp amino acid residue at position 586 of the S. cerevisiae enzyme was equivalent to the Trp residue at position 497 of the Y. lipolytica enzyme. It was therefore hypothesized that W497L mutation in the Y. lipolytica enzyme would likely confer sulfonylurea herbicide resistance, if the wild type cells were themselves sensitive to sulfonylurea. Using methodology well known to those of skill in the art, it was determined that sulfonylurea (chlorimuron ethyl) at a concentration of 100 μg/mL in minimal medium was sufficient to inhibit growth of wild type Y. lipolytica strains ATCC #20362 and ATCC #90812.

[2] = test system: β-glucuronidase (GUS) reporter; assay: Comparative analysis of promoters by histochemical analysis of GUS expression
Protocol: Comparative studies investigating the promoter activities of the TEF, GPD, GPDIN, GPM, GPAT, FBA, FBAIN and YAT1 promoters were performed, by synthesizing constructs comprising each promoter and the E. coli gene encoding β-glucuronidase (GUS) as a reporter gene (Jefferson, R. A. Nature. 14(342):837-838 (1989)). Then, GUS activity was measured by histochemical and fluorometric assays (Jefferson, R. A. Plant Mol. Biol. Reporter 5:387-405 (1987)) and/or by using Real Time PCR for mRNA quantitation.
Yarrowia lipolytica ATCC #76982 strains containing plasmids pY5-30, pYZGDG, pYZGMG, pDMW212 and pDMW214 were grown from single colonies in 3 mL MM at 30° C. to an OD600˜1.0. Then, 100 μl of cells were collected by centrifugation, resuspended in 100 μl of histochemical staining buffer, and incubated at 30° C. Staining buffer was prepared by dissolving 5 mg of 5-bromo-4-chloro-3-indolyl glucuronide (X-Gluc) in 50 μl dimethyl formamide, followed by the addition of 5 mL 50 mM NaPO4, pH 7.0.
In a separate experiment, Y. lipolytica Y2034 strains containing plasmids pY5-30, pYGPAT-GUS, pYAT-GUS and pDMW214 were grown from single colonies in 5 mL SD media at 30° C. for 24 hrs to an OD600˜8.0. Then, 1 mL of cells were collected by centrifugation. The remaining cultures were centrifuged and washed 2× with HGM, resuspended in 5 mL each of HGM and allowed to grow at 30° C. further. […]

[3] = test system: β-glucuronidase (GUS) reporter; assay: Comparative analysis of promoters by fluorometric assay of GUS expression
Protocol: GUS activity was also assayed by fluorometric determination of the production of 4-methylumbelliferone (4-MU) from the corresponding substrate β-glucuronide (Jefferson, R. A. Plant Mol. Biol. Reporter 5:387-405 (1987)).
Yarrowia lipolytica ATCC #76982 strains containing plasmids pY5-30, PYZGDG, PYZGMG, pDMW212 and pDMW214 were grown from single colonies in 3 mL MM (as described above) at 30° C. to an OD600˜1.0. Then, the 3 mL cultures were each added to a 500 mL flask containing 50 mL MM and grown in a shaking incubator at 30° C. for about 24 hrs. The cells were collected by centrifugation, resuspended in Promega Cell Lysis Buffer and lysed using the BIO 101 Biopulverizer system (Vista, Calif.). After centrifugation, the supernatants were removed and kept on ice.
Similarly, Y. lipolytica strain Y2034 containing plasmids pY5-30, pYAT-GUS, pYGPAT-GUS and pDMW214 constructs, respectively, were grown from single colonies in 10 mL SD medium at 30° C. for 48 hrs to an OD600˜5.0. Two mL of each culture was collected for GUS activity assays, as described below, while 5 mL of each culture was switched into HGM.
Specifically, cells from the 5 mL aliquot were collected by centrifugation, washed once with 5 mL of HGM and resuspended in HGM. The cultures in HGM were then grown in a shaking incubator at 30° C. for 24 hrs. Two mL of each HGM culture were collected for the GUS activity assay, while the remaining culture was allowed to grow for an additional 96 hrs before collecting an additional 2 mL of each culture for the assay.
Each 2 mL culture sample in SD medium was resuspended in 1 mL of 0.5× cell culture lysis reagent (Promega). Resuspended cells were mixed with 0.6 mL of glass beads (0.5 mm diameter) in a 2.0 mL screw cap tube with a rubber O-ring. The cells were then homogenized in a Biospec mini beadbeater (Bartlesville, Okla.) at the highest setting for 90 sec. The homogenization mixtures were centrifuged for 2 min at 14,000 rpm in an Eppendof centrifuge to remove cell debris and beads. The supernatant was used for GUS assay and protein determination.
For each fluorometric assay, 100 μl of extract was added to […] of GUS assay buffer (2 mM 4-methylumbelliferyl-β-D-glucuronide (“MUG”) in extraction buffer) or 200 μl of extract was added to 800 μl of GUS assay buffer. The mixtures were placed at 37° C. Aliquots of 100 μl were taken at 0, 30 and 60 min time points and added to 900 μl of stop buffer (1 M Na2CO3). Each time point was read using a CytoFluor Series 4000 Fluorescence Multi-Well Plate Reader (PerSeptive Biosystems, Framingham, Mass.) set to an excitation wavelength of 360 nm and an emission wavelength of 455 nm. Total protein concentration of each sample was determined using 10 μl of extract and 200 μl of BioRad Bradford reagent or 20 μl of extract and 980 μl of BioRad Bradford reagent (Bradford, M. M. Anal. Biochem. 72:248-254 (1976)). GUS activity was expressed as nmoles of 4-MU per minute per mg of protein.

[4] = test system: β-glucuronidase (GUS) reporter; assay: Relative promoter activity rank from comparative GUS reporter studies (histochemical, fluorometric and/or Real Time PCR); settings: relative to other promoters
Protocol: The activity of GPM is about the same as TEF, while the activity of GPD, FBA, FBAIN, FBAINm, GPDIN, GPAT, YAT1 and EXP1 are all greater than TEF (activity is quantified in a relative manner in the column titled “Activity Rank”, wherein a ‘1’ corresponds to the promoter with lowest activity, while a ‘7’ corresponds to the promoter with highest activity). […] GUS activity in each expressed construct was measured by histochemical and/or fluorometric assays (Jefferson, R. A. Plant Mol. Biol. Reporter 5:387-405 (1987)) and/or by use of Real Time PCR.

Question: With CCOC(=O)c1ccccc1S(=O)(=O)NC(=O)Nc1nc(Cl)cc(OC)n1 [chlorimuron ethyl] as the compound, how does the “concentration in minimal medium sufficient to inhibit growth” value [1] read?
Answer: The value was 100 µg/mL.

Question: How did the “promoter activity by histochemical staining” value ([2]; strain Y2034, 24 hr in SD medium, FIG. 5C) turn out when “YAT1: Y. lipolytica ammonium transporter promoter, SEQ ID NO:165” was run?
Answer: Its value is “active; also recorded: stronger than the TEF promoter but significantly weaker than the FBAIN promoter and GPAT promoter”.

Question: What about the “promoter activity by histochemical staining” value ([2]; strain Y2034, grown in HGM for 24 hrs) of the same compound?
Answer: The value was “stronger than the GPAT promoter and comparable with the FBAIN promoter”.

Question: What about the “promoter activity relative to activity in SD medium” value ([3]; after 120 hrs in HGM) of the same compound?
Answer: The value was 25 ×.

Question: What about the GUS activity ([3]; strain Y2034, 24 hr, HGM) of the same compound?
Answer: Its GUS activity is 19.154 nmoles of 4-MU per minute per mg of protein.

Question: What about the GUS activity ([3]; strain Y2034, 48 hr, SD) of the same compound?
Answer: The GUS activity was 0.536 nmoles of 4-MU per minute per mg of protein.

Question: And the GUS activity ([3]; strain Y2034, 120 hr HGM)?
Answer: The GUS activity was 13.400 nmoles of 4-MU per minute per mg of protein.

Question: And the “increase of promoter activity” value ([3]; switched from SD medium into HGM and grown for 24 hrs)?
Answer: Its value is roughly 37 fold.

Question: And the “Activity “Rank”” value [4]?
Answer: The value was 6.
